Series [1] is described as follows: Solubility of risperidone in receiving medium for in vitro dissolution. The note with it: 50 mm tris buffer, pH 7.4, aqueous buffer.
From the text: Real time and accelerated methodologies were used. The equipment consisted of a Hanson research 6-cell USP paddle (Method II) dissolution apparatus interfaced with a spectrophotometer and data station. Receiving media were continuously recirculated from each cell to flow cells inside the spectrophotometer. The absorbance of the receiving media was monitored at 236 nm for quantification of risperidone.
The real time model measured the release rates of microparticles into a receiving medium consisting of 50 mM tris buffer at pH 7.4 at 37° C. […] The amount of risperidone was kept below 20% of saturation to provide infinite sink conditions.
The nature of series [2]: In Vitro Dissolution of norethindrone (NET) microparticles. It counts as physicochemical. The note with it: ethyl acetate alone as solvent; b93: extreme ethyl acetate contents in quench; quench volume varied.

The term solubility denotes how much of the substance goes into solution per volume. Lower therefore signals little dissolved substance.

“Also recorded” adds a separate entry of the source. Where only a bound is given, the exact number is not on record here.

Compound `Cc1nc2n(c(=O)c1CCN1CCC(c3noc4cc(F)ccc34)CC1)CCCC2` [Risperidone, risperidone] yielded a solubility in series [1] of no less than 500 µg/mL.
With `C#C[C@]1(O)CC[C@H]2[C@@H]3CCC4=CC(=O)CC[C@@H]4[C@H]3CC[C@@]21C` [NET, norethindrone], the “in vitro release rate from microparticles” value in series [2] is given as “Higher than normal release rates; also recorded: quicker release; also recorded: varies slightly”.

Values taken from patent US5650173A, “Preparation of biodegradable microparticles containing a biologically active agent” (Alkermes Controlled Therapeutics Inc. II, priority 1996, dated 1997).
